Here are results for four molecules from US5002959A, “BU-4146T antibiotic” (Bristol-Myers Squibb Company, priority 1989, dated 1991).

The subject of one data set is Aspergillus flavus. Put plainly: Antifungal MIC by serial agar dilution method. The format is cell-based. To be noted: strain FA21436. As to the method: (§1) The minimum inhibitory concentrations (MICs) of BU-4146T were determined against various bacteria and fungi by the serial agar dilution method. Nutrient agar (Eiken) was used for bacteria and Sabouraud dextrose agar (Difco) for fungi. The inoculum size was adjusted to 10^2 -10^4 cfu/ml for bacteria and 10^3 cfu/ml for fungi.

For the next data set, the system named is Aspergillus fumigatus. Put plainly: Antifungal MIC by serial agar dilution method. The format is cell-based. How it is done: as §1
Background: In agar dilution, organisms are placed on agar that contains the substance at set levels.

A further data set concerns Blastomyces dermatidis. Put plainly: Antifungal MIC by serial agar dilution method. To be noted: strain IF08144. The format is cell-based. How it is done:
as §1

A further data set concerns Candida albicans. Put plainly: Antifungal MIC by serial agar dilution method. The data set is classed as cell-based. As to the method:
as §1

The test system of the next data set is Cryptococus neoformans. Put plainly: Antifungal MIC by serial agar dilution method. The format is cell-based. To be noted: Cryptococcus neoformans. How it is done: as §1
The test system of a further data set is Fusarium moniliforme. Put plainly: Antifungal MIC by serial agar dilution method. The format is cell-based. To be noted: Fusarium verticillioides; strain A2284. How it is done:
as §1

The subject of the next data set is Mucor spinosus. The data set can be described thus: Antifungal MIC by serial agar dilution method. The format is cell-based. To be noted: strain IF05317. As to the method: as §1
The next data set relates to Petriellidium boydii. Put plainly: Antifungal MIC by serial agar dilution method. The format is cell-based. Particulars: Scedosporium boydii; strain IF08078. How it is done:
as §1

For a further data set, the system named is Sporothrix schenckii. The data set can be described thus: Antifungal MIC by serial agar dilution method. The data set is classed as cell-based. To be noted: strain IF08158. As to the method: as §1
Data set [1] has as its system Trichophyton mentagrophytes. Put plainly: Antifungal MIC by serial agar dilution method. The data set is classed as cell-based. How it is done:
as §1

A further data set has as its system Piricularia oryzae. The data set can be described thus: microbe, parasite or virus in culture. The format is cell-based.
Another data set concerns Gram-negative bacteria. Put plainly: Antibacterial activity by serial agar dilution method. The data set is classed as cell-based. To be noted: at 100 mcg/ml. How it is done:
as §1

The next data set has as its system Gram-positive bacteria. Described as above. The format is cell-based. To be noted: at 100 mcg/ml. How it is done:
as §1

A further data set concerns fungi. Put plainly: Antifungal activity as a whole (serial agar dilution). Particulars: versus streptimidone. The data set is classed as cell-based. How it is done:
as §1

Data set [2] relates to B16-F10 (murine melanoma) cells. Put plainly: In vitro cytotoxicity. The format is cell-based. Particulars: Mus musculus; B16-F10, 72 hours. How it is done:
(§2) B16-FIO, Moser and HCT-116 cells were harvested and implanted into wells of 96-well microtiter plate with test materials at the inoculum sizes of 3×10^4, 6×10^4 and 6×10^4 cell/ml, respectively. They were incubated at 37° C. in a humidified atmosphere of 5% carbon dioxide and 95% air for 72 hours. The cytotoxicity against the tumor cells was determined colorimetrically at 540 nm after staining viable cells.

Data set [3] has as its system HCT-116 (human colon carcinoma) cells. Put plainly: In vitro cytotoxicity. The data set is classed as cell-based. Particulars: HCT-116, 72 hours. How it is done: as §2
Data set [4] relates to Moser (human colorectal carcinoma) cells. Put plainly: In vitro cytotoxicity. The data set is classed as cell-based. Particulars: 72 hours. How it is done: as §2
Data set [5] relates to murine and human tumor cells (B16-F10, Moser, HCT-116). The data set can be described thus: In vitro cytotoxicity, comparison over the tumor cell lines. The data set is classed as cell-based. To be noted: versus mitomycin C; approximately. How it is done: as §2
In data set [6] the test system is DNA synthesis in B16-F10 melanoma cells. The data set can be described thus: Inhibition of macromolecule synthesis in B16-F10 melanoma cells: DNA. The format is cell-based, murine. To be noted: for IC50: Mus musculus, B16-F10, 3H-thymidine, 3.5 hours. How it is done: (§3) Inhibitory effects of BU-4146T on the macromolecule (DNA, RNA and protein) synthesis were determined in cultured B16-FlO melanoma cells. B16-FlO cells (10^5 cells/ml) were incubated with the compound at 37° C. for 3.5 hours (for DNA synthesis) or 4 hours (for RNA and protein synthesis). Labelled presursor, ^3 H-thymidine, ^14 C-uridine or ^3 H-leucine was added to the culture and further incubated for 30 minutes (for DNA) or 60 minutes (for RNA and protein). After washing with chilled 5% trichloroacetic acid solution, the radio activity incorporated into the acid-insoluble fraction of the tumor cells was determined by a liquid scintillation counter.

Data set [7] has as its system RNA synthesis in B16-F10 melanoma cells. Put plainly: Inhibition of macromolecule synthesis in B16-F10 melanoma cells: RNA. The data set is classed as cell-based, murine. To be noted: Mus musculus, 14C-uridine, 4 hours. How it is done: as §3
Data set [8] relates to protein synthesis in B16-F10 melanoma cells. Put plainly: Inhibition of macromolecule synthesis in B16-F10 melanoma cells: protein. To be noted: Mus musculus, 3H-leucine, 4 hours. The data set is classed as cell-based, murine. As to the method: as §3
The next data set in a line: Solubility. The data set is classed as physicochemical.
The nature of data set [9]: Cytotoxicity of hydrogenated derivative. The format is cell-based.
Where [10] appears, read: Trichophyton mentagrophytes, strain D155, read-out: MIC.

In brackets after ≈: the same amount, converted by molar mass. Like-named read-outs stand apart in the source and are kept apart here.

For `C/C(=C\C(C)C(=O)CC(O)CC1CC(=O)NC(=O)C1)C1OC(=O)/C=C/CC/C=C/C=C\C1C` (stereo not shown) [BU-4146T], the MIC in the data set on Aspergillus flavus was 3.1 µg/mL (≈ 6.77 µM); in the data set with Aspergillus fumigatus (strain IAM2034), 1.6 µg/mL (≈ 3.5 µM); against Aspergillus fumigatus (strain IAM2530), 0.8 µg/mL (≈ 1.75 µM); in the data set on Blastomyces dermatidis it was 12.5 µg/mL (≈ 27.3 µM); against Candida albicans (strain A9540), greater than 100 µg/mL; in the data set on Candida albicans (strain IAM4888) it was greater than 100 µg/mL. In addition, the MIC in the data set on Cryptococus neoformans (strain D49) was 3.1 µg/mL (≈ 6.77 µM); in the data set with Cryptococus neoformans (strain IAM4514) it was 3.1 µg/mL (≈ 6.77 µM); with Fusarium moniliforme, 0.8 µg/mL (≈ 1.75 µM); against Mucor spinosus, 1.6 µg/mL (≈ 3.5 µM); with Petriellidium boydii it was 3.1 µg/mL (≈ 6.77 µM); in the data set with Sporothrix schenckii it was 100 µg/mL (≈ 219 µM). In addition, the MIC in data set [1] (setting [10]) is 100 µg/mL (≈ 219 µM); in data set [1] (strain No. 4329), 100 µg/mL (≈ 219 µM); against Piricularia oryzae, 3.1 µg/mL (≈ 6.77 µM). Moreover, the “inhibitory activity against Gram-negative bacteria” value with Gram-negative bacteria is reported as “did not show inhibitory activity”. Moreover, the “inhibitory activity against Gram-positive bacteria” value with Gram-positive bacteria was “did not show inhibitory activity”. Besides, the “antifungal activity, times more potent than streptimidone” value with fungi is 30-100 times. Moreover, the IC50 was 0.03 µg/mL (≈ 0.0656 µM) in data set [2]; 0.014 µg/mL (≈ 0.0306 µM) in data set [3]; 0.047 µg/mL (≈ 0.103 µM) in data set [4]; 0.023 µg/mL (≈ 0.0503 µM) in data set [6]; 4.2 µg/mL (≈ 9.18 µM) in data set [7]; 0.024 µg/mL (≈ 0.0525 µM) in data set [8]. The “IC50 values, times superior to those of mitomycin C” value in [5] was 20-60 times. Also, the “potency in DNA and protein synthesis, times higher than in RNA synthesis” value in data set [6] (in terms of IC50, DNA and protein versus RNA) was roughly 200 times. In addition, the solubility in n-hexane entry in “Solubility” (n-hexane) is given as “practically insoluble”. Also, in the data set “Solubility” (organic solvents), the “solubility in acetonitrile, n-butanol, methanol, ethyl acetate, chloroform and dimethyl sulfoxide” value is recorded as “readily soluble”. The solubility in water entry in “Solubility” (water) is “practically insoluble”.

For `CO[C@@]12[C@H](COC(N)=O)C3=C(C(=O)C(C)=C(N)C3=O)N1C[C@@H]1N[C@@H]12` [Mitomycin C, reference compound], the 50% inhibitory concentration (IC50) in [6] was 1.6 µg/mL (≈ 4.79 µM); in [7], 11 µg/mL (≈ 32.9 µM); in data set [8], 60 µg/mL (≈ 179 µM).

As for `C=C/C(C)=C/[C@H](C)C(=O)C[C@H](O)CC1CC(=O)NC(=O)C1` [Streptimidone, reference compound], the MIC against Aspergillus flavus, in the data set on Aspergillus fumigatus (strain IAM2034), in the data set with Aspergillus fumigatus (strain IAM2530), in the data set on Blastomyces dermatidis, in the data set with Candida albicans (strain A9540) and in the data set with Candida albicans (strain IAM4888) was greater than 100 µg/mL each time. Also, the MIC is 50 µg/mL (≈ 170 µM) against Cryptococus neoformans (strain D49); 50 µg/mL (≈ 170 µM) in the data set with Cryptococus neoformans (strain IAM4514); 50 µg/mL (≈ 170 µM) with Fusarium moniliforme; greater than 100 µg/mL against Mucor spinosus; greater than 100 µg/mL in the data set with Petriellidium boydii; greater than 100 µg/mL with Sporothrix schenckii. For the same molecule, the MIC (in [1] (setting [10]); in data set [1] (strain No. 4329); with Piricularia oryzae (read-out: MIC)) was greater than 100 µg/mL in each case.

For `C/C(=C\C(C)C(=O)CC(O)CC1CC(=O)NC(=O)C1)C1OC(=O)CCCCCCCCC1C` (stereo not shown) [hexahydro-BU-4146T], in [9] (in words), the cytotoxicity result is on record as “weak cytotoxicity”. The “cytotoxicity, times weaker than that of BU-4146T” value in [9] (versus BU-4146T) is recorded as “about one hundred”.

Broadly, the IC50 is the concentration that gives 50% inhibition.
